# Results taken from patent publication US20260008760A1, “DIPEPTIDYL PEPTIDASE 1 INHIBITORS AND USES THEREOF” (Insmed Incorporated, priority 2024, published 2026).
# pIC50: −log10 of the molar value. Where “and” joins values, the source holds several entries; their conditions need not be identical. Identical values can stand only once. Like-named read-outs stand apart in the source and are kept apart here.
# How the values were obtained:
# [1] = target: T1, human DPP1 enzyme (Homo sapiens, UniProt P53634); assay: Human DPP1 Enzyme Single-Point Percent Inhibition Testing (HL-60 lysate); type: biochemical; design: A crude lysate of HL-60 cells (ATCC; Manassas, VA) was used as a source of human DPP1 enzyme; host or cells: HL-60 cells (crude lysate); conditions: final compound concentration of 10 nM, 400 μM H-Gly-Arg-AMC, n = 1
# How it was run: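 Enzyme source was HL-60 cell lysate in MES pH 6.0 buffer with NaCl and DTT, pre-incubated 10 min at 37° C with 10 nM compound (final, 1% DMSO). Cleavage of 400 μM H-Gly-Arg-AMC was followed at 350/450 nm over 90 min at 37° C, and percent inhibition was taken against vehicle wells.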
# Target sequence in this assay (P53634 25-463): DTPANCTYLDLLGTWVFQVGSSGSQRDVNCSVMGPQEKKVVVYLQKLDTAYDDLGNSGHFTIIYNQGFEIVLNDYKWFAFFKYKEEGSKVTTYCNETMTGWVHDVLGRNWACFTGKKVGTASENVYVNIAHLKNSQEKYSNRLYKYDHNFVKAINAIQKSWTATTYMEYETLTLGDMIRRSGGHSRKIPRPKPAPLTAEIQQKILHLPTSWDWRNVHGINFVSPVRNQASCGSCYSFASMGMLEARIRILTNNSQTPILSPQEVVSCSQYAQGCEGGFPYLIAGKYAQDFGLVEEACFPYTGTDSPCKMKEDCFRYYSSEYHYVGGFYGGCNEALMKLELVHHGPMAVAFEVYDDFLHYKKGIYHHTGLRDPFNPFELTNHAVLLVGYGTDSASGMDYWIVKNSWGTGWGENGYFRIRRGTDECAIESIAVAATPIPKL
# [2] = target: T1, human DPP1 enzyme; assay: Human DPP1 Enzyme IC50 Assay; type: biochemical; design: was first proteolytically processed into its mature form using recombinant human cathepsin L; purchased R&D Systems
# How it was run: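 Recombinant human DPP1, pre-activated with cathepsin L (pH 4.5), was preincubated with compound 10 min at 37 °C in MES pH 6.0, 50 mM NaCl, 5 mM DTT, 1% DMSO. Cleavage of 400 μM (final) H-Gly-Arg-AMC followed by fluorescence (350/450 nm) over 90 min at 37 °C; IC50 from four-parameter logistic fit versus no-compound control.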
# Target sequence in this assay (P53634 25-134 limits assumed): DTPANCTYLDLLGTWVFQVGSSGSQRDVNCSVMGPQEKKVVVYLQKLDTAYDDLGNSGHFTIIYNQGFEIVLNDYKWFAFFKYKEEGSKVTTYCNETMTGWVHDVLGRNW
# Target sequence in this assay (P53634 231-394 limits assumed): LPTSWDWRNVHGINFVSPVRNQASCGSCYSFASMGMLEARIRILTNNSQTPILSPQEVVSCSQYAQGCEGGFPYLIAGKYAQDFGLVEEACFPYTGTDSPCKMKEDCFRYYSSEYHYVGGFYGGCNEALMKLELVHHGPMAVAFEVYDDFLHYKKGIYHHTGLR
# Target sequence in this assay (P53634 395-463 limits assumed): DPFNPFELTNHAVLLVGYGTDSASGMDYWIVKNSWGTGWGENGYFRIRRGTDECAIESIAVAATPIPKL
# [3] = target: T2, DPP1 in HL-60 cells (Homo sapiens, UniProt P53634); assay: DPP1 Cell Single-Point Percent Inhibition Testing; type: cell-based; design: host or cells: HL-60 cells; conditions: final compound concentration 5 nM, n = 1
# T2 sequence (P53634 25-463): as the sequence (P53634 25-463) above
# How it was run: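 HL-60 cells in unsupplemented RPMI preincubated 60 min at 37 °C with test article (5 nM final, 0.1% DMSO), then given cell-permeable H-Gly-Phe-AFC (100 μM final) for 30 min. Fluorescence at 400/505 nm; percent inhibition versus vehicle after subtracting cell-free background and 10 μM brensocatib non-specific signal.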
# [4] = target: T2, DPP1 in HL-60 cells; assay: DPP1 Cell IC50 assay; type: cell-based; design: host or cells: HL-60 cells; conditions: 60 min pre-incubation, H-Gly-Phe-AFC substrate, average of n runs
# How it was run: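 HL-60 cells in PBS (5×10^5 live cells per mL) pre-incubated with compound (0.5% DMSO) 60 min at 37° C, 5% CO2, then H-Gly-Phe-AFC substrate (500 μM stock) added for 30 min. Fluorescence at 400/505 nm; % inhibition vs vehicle wells, IC50 from four-parameter logistic fit.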
# [5] = activated recombinant human DPP1, 400 μM H-Gly-Arg-AMC, 10 minutes pre-incubation at 37° C., pH 6.0, average of n runs, read-out: Avg. IC50 (Human DPP1 enzyme IC50 value ranges)
# [6] = read-out: Avg. IC50 (DPP1 Cell IC50 value ranges)
# [7] = Avg. IC50 (DPP1 Cell IC50 value ranges)
smiles,measurement,setting,value
CO[C@H]1CCO[C@H](C(=O)N[C@H](C#N)Cc2ccc(-c3cc4c(C)nc(C)cn4c3)cc2)CNC1 [Compound A92],inhibition at 0.01 µM,[1],≤ 40%
same,pIC50,[2]; [5],< 7.82
same,inhibition at 0.005 µM,[3],≤ 76.5%
same,pIC50,[4]; [6],< 8.60 and 8.60 to 9.00
CCN1C(=O)Cc2ccc(-c3ccc(C[C@@H](C#N)NC(=O)[C@@H]4CNCC[C@@H](OC)CO4)c(F)c3)cc21 [Compound G2],inhibition at 0.01 µM,[1],≥ 66.7%
same,pIC50,[2]; [5],> 8.30
same,inhibition at 0.005 µM,[3],≤ 76.5%
same,pIC50,[4]; [6],8.60 to 9.00
C[C@@H]1NC[C@@H](C(=O)N[C@H](C#N)Cc2ccc(-c3ccc4c(n3)CCCN4)cc2)OC[C@@H]1O [Compound A105],inhibition at 0.01 µM,[1],≤ 40%
same,pIC50,[2]; [5],< 7.82
same,inhibition at 0.005 µM,[3],≤ 76.5%
same,pIC50,[4]; [6],< 8.60
"N#C[C@H](Cc1ccc(-c2ccc(S(=O)(=O)N3CCC3)cc2)cc1)NC(=O)[C@@H]1CNCCCO1 [Compound 19, (S)—N—((S)-2-(4′-(azetidin-1-ylsulfonyl)-[1,1′-biphenyl]-4-yl)-1-cyanoethyl)-1,4-oxazepane-2-carboxamide]",inhibition at 0.01 µM,[1],≤ 40%
same,pIC50,[2]; [5],< 7.82
same,inhibition at 0.005 µM,[3],≤ 76.5%
same,pIC50,[4]; [6],< 8.60
N#Cc1ccc2c(c1)-c1cc(F)c(CC(C#N)NC(=O)[C@@H]3CNCCCO3)cc1OC2 (stereo partly shown) [Compound B33],inhibition at 0.01 µM,[1],≤ 40%
same,pIC50,[2],< 7.82
same,inhibition at 0.005 µM,[3],≤ 76.5%
same,pIC50,[4]; [7],< 8.60
Cn1c(=O)oc2cc3c(cc21)-c1cc(F)c(C[C@@H](C#N)NC(=O)[C@@H]2CNCCCCO2)cc1SC3 [Compound C8],inhibition at 0.01 µM,[1],≥ 66.7%
same,pIC50,[2]; [5],> 8.30
same,inhibition at 0.005 µM,[3],≤ 76.5%
same,pIC50,[4]; [6],8.60 to 9.00
CO[C@H]1CCO[C@H](C(=O)N[C@H](C#N)Cc2ccc(-c3ccc4c(c3)C3(CCN(C5COC5)CC3)OC4)cc2F)CNC1 [Compound F5],inhibition at 0.01 µM,[1],≥ 66.7%
same,pIC50,[2]; [5],> 8.30
same,inhibition at 0.005 µM,[3],≤ 76.5%
same,pIC50,[4]; [6],8.60 to 9.00
N#Cc1ccc2c(c1)COc1cc(C[C@@H](C#N)NC(=O)[C@@H]3CNCCCO3)c(F)cc1-2 [Compound B32],inhibition at 0.01 µM,[1],40 to 66.7%
same,pIC50,[2],7.82 to 8.30
same,inhibition at 0.005 µM,[3],76.5 to 93.9%
same,pIC50,[4]; [7],8.60 to 9.00
CO[C@@H]1CCNC[C@@H](C(=O)N[C@H](C#N)Cc2ccc(-c3ccc(S(=O)(=O)N4CCC4)cc3)cc2)OC1 [Compound F16],inhibition at 0.01 µM,[1],≥ 66.7%
same,inhibition at 0.005 µM,[3],≤ 76.5%
CN1CCC(n2ncc3ccc(-c4ccc(C[C@@H](C#N)NC(=O)[C@@H]5CNCCCCO5)c(F)c4)cc32)CC1 [Compound H34],inhibition at 0.01 µM,[1],≥ 66.7%
same,inhibition at 0.005 µM,[3],≤ 76.5%
C[C@@H]1NC[C@@H](C(=O)NC(C#N)Cc2cc3c(cc2F)-c2ccc4oc(=O)n(C)c4c2CO3)OC[C@@H]1O (stereo partly shown) [Compound C23],inhibition at 0.01 µM,[1],40 to 66.7%
same,inhibition at 0.005 µM,[3],≤ 76.5%
CN1CC2(C1)OC(=O)c1ccc(-c3ccc(C[C@@H](C#N)NC(=O)[C@@H]4CNCCCCO4)c(F)c3)cc12 [Compound 42],inhibition at 0.01 µM,[1],40 to 66.7%
same,inhibition at 0.005 µM,[3],≤ 76.5%
CO[C@H]1CCO[C@H](C(=O)N[C@H](C#N)Cc2ccc(-c3ccc(CN4CCN(C)CC4)cc3)cc2F)CNC1 [Compound F28],inhibition at 0.01 µM,[1],≤ 40%
same,inhibition at 0.005 µM,[3],≤ 76.5%
CCN1C(=O)Cc2ccc(-c3ccc(C[C@@H](C#N)NC(=O)[C@@H]4CNCC(OC)CO4)cc3)cc21 (stereo partly shown) [Compound G3],inhibition at 0.01 µM,[1],≥ 66.7%
same,inhibition at 0.005 µM,[3],76.5 to 93.9%
CN1CCC2(C1)OC(=O)c1ccc(-c3ccc(C[C@@H](C#N)NC(=O)[C@@H]4CNCCCCO4)c(F)c3)cc12 (stereo partly shown) [Compound 43],inhibition at 0.01 µM,[1],40 to 66.7%
same,inhibition at 0.005 µM,[3],≤ 76.5%
CO[C@H]1CCO[C@H](C(=O)N[C@H](C#N)Cc2ccc(-c3ccc4c(n3)CCCN4)cc2)CNC1 [Compound A93],inhibition at 0.01 µM,[1],≤ 40%
same,inhibition at 0.005 µM,[3],≤ 76.5%
C[C@@H]1NC[C@@H](C(=O)N[C@H](C#N)Cc2ccc(-c3cnc4c(n3)CCCC4)cc2)OC[C@@H]1O [Compound A108],inhibition at 0.01 µM,[1],≤ 40%
same,inhibition at 0.005 µM,[3],≤ 76.5%
CCN1C(=O)Cc2ccc(-c3ccc(C[C@@H](C#N)NC(=O)[C@@H]4CNCC[C@@H](OC)CO4)cc3)cc21 [Compound G1],inhibition at 0.01 µM,[1],≥ 66.7%
same,inhibition at 0.005 µM,[3],≤ 76.5%
C[C@@H]1NC[C@@H](C(=O)N[C@H](C#N)Cc2ccc(-c3ccc4cnn(C5CCN(C)CC5)c4c3)cc2F)OC[C@@H]1O [Compound H28],inhibition at 0.01 µM,[1],≥ 66.7%
same,inhibition at 0.005 µM,[3],≤ 76.5%
N#C[C@H](Cc1ccc(-c2ccc3c(n2)CCCN3)cc1F)NC(=O)[C@@H]1CNCCCO1 [Compound A119],inhibition at 0.01 µM,[1],≤ 40%
same,inhibition at 0.005 µM,[3],≤ 76.5%
C[C@@H]1NC[C@@H](C(=O)NC(C#N)Cc2cc3c(cc2F)-c2cc4c(cc2CO3)oc(=O)n4C)OC[C@H]1O (stereo partly shown) [Compound C19],inhibition at 0.01 µM,[1],≥ 66.7%
same,inhibition at 0.005 µM,[3],≤ 76.5%
CO[C@H]1CCO[C@H](C(=O)NC(C#N)Cc2cc3c(cc2F)-c2ccc(F)cc2CO3)CNC1 (stereo partly shown) [Compound B26],inhibition at 0.01 µM,[1],40 to 66.7%
same,inhibition at 0.005 µM,[3],≤ 76.5%
CO[C@H]1CCO[C@H](C(=O)NC(C#N)Cc2cc3c(cc2F)-c2cc4c(cc2CO3)oc(=O)n4C)CNC1 (stereo partly shown) [Compound C16],inhibition at 0.01 µM,[1],≥ 66.7%
same,inhibition at 0.005 µM,[3],≤ 76.5%
CO[C@@H]1CCNC[C@@H](C(=O)N[C@H](C#N)Cc2ccc(-c3ccc4c(c3)C3(CCCN(C)C3)C(=O)N4C)cc2F)OC1 (stereo partly shown) [Compound F12],inhibition at 0.01 µM,[1],≥ 66.7%
same,inhibition at 0.005 µM,[3],≤ 76.5%
N#C[C@H](Cc1ccc(-c2cnc3c(n2)CCCC3)cc1F)NC(=O)[C@@H]1CNCCCO1 [Compound A120],inhibition at 0.01 µM,[1],≤ 40%
same,inhibition at 0.005 µM,[3],≤ 76.5%
N#C[C@H](Cc1ccc(-c2ccc3c(c2)C2(CCN(C4COC4)CC2)OC3)cc1)NC(=O)[C@@H]1CNCCCCO1 [Compound 39],inhibition at 0.01 µM,[1],≤ 40%
same,inhibition at 0.005 µM,[3],≤ 76.5%
COC1CNC[C@@H](C(=O)N[C@H](C#N)Cc2ccc(-c3cnc4c(n3)CCCC4)cc2F)OC1 (stereo partly shown) [Compound A91],inhibition at 0.01 µM,[1],≥ 66.7%
same,inhibition at 0.005 µM,[3],≤ 76.5%
CCN1C(=O)Cc2ccc(-c3ccc(C[C@@H](C#N)NC(=O)[C@@H]4CNCC(OC)CO4)c(F)c3)cc21 (stereo partly shown) [Compound G4],inhibition at 0.01 µM,[1],≥ 66.7%
same,inhibition at 0.005 µM,[3],≥ 93.9%
CO[C@@H]1CCNC[C@@H](C(=O)N[C@H](C#N)Cc2ccc(-c3ccc(S(=O)(=O)N4CCC4)cc3)cc2F)OC1 [Compound F17],inhibition at 0.01 µM,[1],≥ 66.7%
same,inhibition at 0.005 µM,[3],≤ 76.5%
N#C[C@H](Cc1ccc(-c2ccc(S(=O)(=O)N3CCC3)cc2)cc1F)NC(=O)[C@@H]1CNCCCCO1 [Compound 47],inhibition at 0.01 µM,[1],≤ 40%
same,inhibition at 0.005 µM,[3],≤ 76.5%
N#C[C@H](Cc1ccc(-c2ccc3c(n2)CCCN3)cc1)NC(=O)[C@@H]1CNCCCO1 [Compound A117],inhibition at 0.01 µM,[1],≤ 40%
same,inhibition at 0.005 µM,[3],≤ 76.5%
Cn1c(=O)oc2ccc3c(c21)COc1cc(CC(C#N)NC(=O)[C@@H]2CNCCCCO2)c(F)cc1-3 (stereo partly shown) [Compound C26],inhibition at 0.01 µM,[1],≤ 40%
same,inhibition at 0.005 µM,[3],≤ 76.5%
N#CC(Cc1cc2c(cc1F)-c1cc(C3COC3)c(F)cc1CO2)NC(=O)[C@@H]1CNCCCO1 (stereo partly shown) [Compound B31],inhibition at 0.01 µM,[1],40 to 66.7%
same,inhibition at 0.005 µM,[3],76.5 to 93.9%
